The values below are quoted from earlier work in publication PMC10452110, “Indole-3-Acetamido-Polyamines as Antimicrobial Agents and Antibiotic Adjuvants” (Biomolecules, 2023).

pIC50: −log10 of the molar value. Converted amounts (≈) assume the structure as drawn. Read-outs that look alike come from different tables or passages of the source.

Data set [1] concerns Staphylococcus aureus (ATCC 25923). Also noted: method as in Cadelis et al. [15]. The conditions noted are these: S. aureus ATCC 25923; ref Cadelis et al. [15]; cited from earlier work.
A further data set deals with K. pneumoniae. More on the design: method as in PMID 33090655. Particulars: ref [15]; cited from earlier work.
A further data set has as its system human red blood cells. More on the design: method as in Cadelis et al. [15]. Particulars: ref Cadelis et al. [15], cited from earlier work.
Another data set deals with P. aeruginosa ATCC 27853. More on the design: method as in Cadelis et al. [15]. The conditions noted are these: doxycycline at 4.5 µM, ref Cadelis et al. [15], cited from earlier work.
Data set [2] has as its system Acinetobacter baumannii (ATCC 19606). More on the design: method as in Cadelis et al. [15]. The conditions noted are these: A. baumannii ATCC 19606; ref Cadelis et al. [15]; cited from earlier work.
The subject of data set [3] is Escherichia coli (ATCC 25922). More on the design: method as in Cadelis et al. [15]. Particulars: E. coli ATCC 25922; ref Cadelis et al. [15]; cited from earlier work.
In data set [4] the test system is Pseudomonas aeruginosa (ATCC 27853). Also noted: method as in Cadelis et al. [15]. The conditions noted are these: P. aeruginosa ATCC 27853; ref Cadelis et al. [15]; cited from earlier work.
The next data set concerns MRSA (ATCC 43300). Particulars: ref Cadelis et al. [15]; cited from earlier work.
Data set [5] concerns Cryptococcus neoformans (ATCC 208821). Also noted: method as in Cadelis et al. [15]. The conditions noted are these: C. neoformans ATCC 208821; ref Cadelis et al. [15]; cited from earlier work.
Data set [6] concerns Candida albicans (ATCC 90028). Also noted: method as in Cadelis et al. [15]. Particulars: C. albicans ATCC 90028; ref Cadelis et al. [15]; cited from earlier work.
For data set [7], the system named is HEK293 (human embryonic kidney) cells. More on the design: method as in Cadelis et al. [15]. Particulars: ref Cadelis et al. [15], cited from earlier work.
Another data set has as its system E. coli. More on the design: method as in PMID 33090655. Particulars: ref [15]; cited from earlier work.
Data set [8] has as its system Klebsiella pneumoniae (ATCC 700603). More on the design: method as in Cadelis et al. [15]. The conditions noted are these: K. pneumoniae ATCC 700603; ref Cadelis et al. [15]; cited from earlier work.

As for `O=C(Cc1c[nH]c2ccc(Br)cc12)NCCCNCCCCNCCCNC(=O)Cc1c[nH]c2ccc(Br)cc12` [Compound 15a], in data set [1], the “MIC S. a” value is 25 µM (≈ 16.9 µg/mL). Moreover, the “enhancement of the antibiotic action of doxycycline (MIC)” value is 6.25 µM with K. pneumoniae and 3.125 µM in the data set on E. coli. The results for the “Hemolysis: concentration of compound at 10% hemolytic activity (HC10)” value with human red blood cells (listed as 5) and in the data set with human red blood cells were “negligible” and greater than 35 µM, respectively. Further, the “Dox/P. a fold change (ratio between intrinsic MIC of the test compound and combination MIC)” value with P. aeruginosa ATCC 27853 (P. aeruginosa ATCC 27853) is on record as 32 fold. The “Dox/P. a: concentration required to restore doxycycline activity (combination MIC)” value in the data set on P. aeruginosa ATCC 27853 (P. aeruginosa) is 6.25 µM. In data set [2], the “MIC A. b” value is greater than 48 µM. In data set [3], the “MIC E. c” value is 200 µM (≈ 135 µg/mL). In addition, the “MIC P. a” value in data set [4] was 200 µM (≈ 135 µg/mL). For the same compound, the “MIC MRSA” value with MRSA (ATCC 43300) is 47.4 µM (≈ 32 µg/mL). In addition, in [5], the “MIC C. n” value is 11.9 µM (≈ 8.03 µg/mL). Moreover, the “MIC C. a” value in [6] is greater than 48 µM. The pIC50 in data set [7] (read-out: Cytotoxicity: concentration of compound at 50% cytotoxicity (IC50)) is less than 4.46. In data set [7], the “Cytotoxicity: concentration of compound at 50% cytotoxicity (IC50)” value is “negligible”. Moreover, in data set [8], the “MIC K. p” value is greater than 48 µM.
